Reference: paper PMC5786798, “Discovery of New Inhibitors of Toxoplasma gondii via the Pathogen Box” (Antimicrobial Agents and Chemotherapy, 2018)

Columns and labels:
[1] = Cytotoxicity evaluation on Vero cell cultures (UptiBlue viable cell counting assay, 72 h); type: cell-based; details: African green monkey, Vero cells, means from four values from two experiments
Method: The in vitro cytotoxicity of compounds was evaluated on Vero cell cultures by using 96-well plates, since these cells were used for T. gondii growth in our model. […] After 72 h, cytotoxicity was evaluated by using the UptiBlue viable cell counting assay (Interchim). […] Spectrophotometric measurements (FLUOstar Omega microplate reader; BMG Labtech, France) were made at 570 nm and corrected at 600 nm, and blank readings were made on the mean value of the seven negative-control wells. A sample was considered toxic when the cell viability was lower than 80%. […] For a visual control, the last well of each condition was fixed with cold methanol and stained with kit RAL 555 (RAL Diagnostics, France) and examined microscopically (AxioVert 200M; Zeiss, France) at a magnification of ×20 instead of being tested with UptiBlue.

[2] = test system: T. gondii tachyzoites (RH strain, type I); experiment: Determination of IC50s, in vitro chemosensitivity of T. gondii (ELISA, 72 h); details: for IC50: T. gondii RH tachyzoites on Vero cells, 72 h, ELISA, 2-fold dilution series 2 to 0.015 μM, means from four values from two experiments; for selective antitoxoplasmic activity according to hit criteria: hit criteria IC50 <2 μM and SI >4
Toxoplasma gondii = details: effect against Toxoplasma; literature value, no reference given; cited from earlier work

## FC(F)(F)c1cnc(Sc2nnc(-c3ccncc3)o2)c(Cl)c1 [MMV011765]
[1]
  CC50 at 72 h: 9.48 µM

## c1ccc(-c2nc(NC3CCCCC3)cc(C3CC3)n2)nc1 [MMV021013]
[1]
  CC50 at 72 h: 15.9 µM
[2]
  IC50: 1120 ± 35 nM
[2]; Toxoplasma gondii, Vero
  IC50: < 2000 nM

## O=C(Nc1ccc(N2CCNCC2)cc1)c1ccn2ncc(-c3cccc(Cl)c3)c2n1 [MMV022478]
[1]
  CC50 at 72 h: 2.23 µM

## COc1ccc(OC)c(NCc2ccc3nc(N)nc(N)c3c2Cl)c1 [MMV675968]
[1]
  CC50 at 72 h: 5.5 µM

## O=C(Nc1nc(-c2ccccn2)cs1)c1cncn1-c1ccccc1 [MMV676512]
[1]
  CC50 at 72 h: 3.61 µM

## CNC(=O)c1nn(C)c2c1C(C)(C)Cc1cnc(Nc3ccc(N4CCN(C)CC4)cc3)nc1-2 [MMV676602]
[1]
  CC50 at 72 h: 3.3 µM

## O=C(Nc1ccc(C(F)(F)F)c(C(F)(F)F)c1)c1cc(Cl)ccc1O [MMV687807]
[1]
  CC50 at 72 h: 1.69 µM

## CN1CCC(c2cc(-c3ccncc3)c(-c3ccc(F)cc3)[nH]2)CC1 [MMV688703]
[2]
  selective antitoxoplasmic activity according to hit criteria: not selective
[2]; listed as MV688703
  selective antitoxoplasmic activity according to hit criteria: did not show the criteria for inclusion as an active compound

## CC(C)(C)[C@H]1CC[C@H](CC2=C(O)C(=O)c3ccccc3C2=O)CC1 [MMV689480, buparvaquone, reference compound]
[1]
  CC50 at 72 h: 8.66 µM

## CCc1nc(N)nc(N)c1-c1ccc(Cl)cc1 [PYR, pyrimethamine, reference compound]
[1]
  CC50 at 72 h: 10.5 µM
[2]; Toxoplasma gondii, Vero
  IC50: 1170 ± 76 nM

## OC(Cn1cncn1)(Cn1cncn1)c1ccc(F)cc1F [fluconazole]
Toxoplasma gondii
  IC50: 3000 nM

## CCC(C)n1ncn(-c2ccc(N3CCN(c4ccc(OCC5COC(Cn6cncn6)(c6ccc(Cl)cc6Cl)O5)cc4)CC3)cc2)c1=O (stereo not shown) [itraconazole]
Toxoplasma gondii
  IC50: 500 nM
